Among the test systems are SF-539 CNS; HL-60(TB) leukemia; SN12C renal; PC-3 prostate; MCF7 breast; MDA-MB-231 breast; NCI-H23 lung; OVCAR-5 ovarian; KM20L2 colon; DMS 273 small cell lung.
Common to all, as to assay: DTP human tumour cell line panel, 48 h

The structures appear in SMILES notation.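 Test compounds were applied to cells in 96-well plates for 48 hours at 5 doses. GI50 = concentration required for 50% inhibition of growth. At the TGI there is no net growth.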 A value given as a limit tells only on which side of the number the result lay.

The source of these data is PubChem BioAssay (NCI).

On to `COc1ccc2nc(-c3ccccc3)cc(Nc3ccc(/C(C)=N/O)cc3)c2c1`, for which the GI50 in the test on SF-539 CNS is 0.35 µM; with HL-60(TB) leukemia, 2.88 µM; in the test with SN12C renal it was 1.7 µM; with PC-3 prostate it was 6.36 µM; with MCF7 breast, 3.35 µM; with MDA-MB-231 breast, 0.733 µM. The GI50 in the test on NCI-H23 lung was 2.51 µM; in the test on OVCAR-5 ovarian, 5.5 µM. For the same compound, the TGI with SF-539 CNS was 3.05 µM; in the test on HL-60(TB) leukemia, over 100 µM; in the test with SN12C renal, 3.19 µM; in the test on PC-3 prostate, over 64.8 µM; with MCF7 breast, over 19.7 µM; in the test with MDA-MB-231 breast, 2.07 µM. Further, the TGI with NCI-H23 lung is over 20.9 µM; with OVCAR-5 ovarian it was over 100 µM.
Consider `COc1cc(NCC(C#N)C#N)ccc1N=Nc1ccc([N+](=O)[O-])cc1`, for which the TGI in the test on SF-539 CNS, in the test with KM20L2 colon, in the test with SN12C renal, with DMS 273 small cell lung, with NCI-H23 lung and in the test with OVCAR-5 ovarian was over 100 µM in each case.
Take `O=C1c2c(c3c4ccccc4n4c3c3c2c2ccccc2n3C/C=C\C4)C(=O)N1Cc1ccccc1`: the TGI in the test with SF-539 CNS, with KM20L2 colon, in the test on HL-60(TB) leukemia, in the test with SN12C renal, in the test on NCI-H23 lung and with OVCAR-5 ovarian was over 100 µM each time.
Turning to `COc1cc2c(c3oc(-c4ccc5c(c4)OCO5)c(O)c(=O)c13)CCC(C)(C)O2`, the TGI with SF-539 CNS, in the test on HL-60(TB) leukemia, in the test on SN12C renal, with DMS 273 small cell lung and with NCI-H23 lung was over 100 µM in each case.
In the case of `O=C1c2cnccc2Cc2cccc3c2N1c1ccccc1S3`, the TGI was 43.3 µM with SF-539 CNS; 34.8 µM with KM20L2 colon; 67.1 µM with HL-60(TB) leukemia; over 100 µM with SN12C renal; 78.2 µM in the test on DMS 273 small cell lung; 52.7 µM in the test with NCI-H23 lung.
As to `COc1ccc(/C=C/c2nc(N3CCOCC3)c3cc(F)c(F)cc3n2)cc1OC`, the GI50 was over 100 µM in the test on SF-539 CNS; 4 µM in the test with HL-60(TB) leukemia; 5.36 µM in the test on SN12C renal; 2.66 µM in the test with PC-3 prostate; 2.54 µM with MCF7 breast; 6.56 µM in the test with MDA-MB-231 breast. The GI50 was 6.05 µM in the test on NCI-H23 lung and 6.54 µM with OVCAR-5 ovarian. Moreover, the TGI is over 100 µM in the test on SF-539 CNS; over 100 µM in the test with HL-60(TB) leukemia; over 100 µM with SN12C renal; 33.9 µM with PC-3 prostate; over 100 µM with MCF7 breast; over 100 µM with MDA-MB-231 breast. Also, the total growth inhibition concentration (TGI) with NCI-H23 lung and with OVCAR-5 ovarian was over 100 µM each time.
For `Cc1cc(C)cc(Nc2nccc(-c3c(-c4ccc(F)cc4)ncn3C3CCNCC3)n2)c1`, the GI50 in the test with SF-539 CNS was 1.75 µM; in the test on HL-60(TB) leukemia it was 1.6 µM; in the test on SN12C renal, 1.21 µM; with PC-3 prostate it was 1.56 µM; with MCF7 breast, 0.566 µM; with MDA-MB-231 breast it was 1.5 µM. In addition, the GI50 was 1.88 µM in the test on NCI-H23 lung and 1.67 µM with OVCAR-5 ovarian. The TGI with SF-539 CNS was 3.25 µM; in the test on HL-60(TB) leukemia it was 3.68 µM; with SN12C renal it was 2.59 µM; in the test with PC-3 prostate, 3.01 µM; in the test on MCF7 breast, 2.09 µM; with MDA-MB-231 breast, 3.09 µM. Besides, the TGI was 4.21 µM in the test with NCI-H23 lung and 3.98 µM in the test on OVCAR-5 ovarian.
Regarding `Cn1cc2ccccc2c1-c1nc(F)nc(Oc2ccc3c(c2)CC[C@@H]2C3CC[C@]3(C)C(O)CCC23)n1` (stereo partly specified), the TGI with SF-539 CNS came to 32.7 µM; in the test on KM20L2 colon, 36.9 µM; with SN12C renal it was 33.8 µM; in the test on DMS 273 small cell lung it was 43.2 µM; in the test on OVCAR-5 ovarian, 33.3 µM.
Regarding `COc1ccc2oc(-c3ccncc3)cc(=O)c2c1`, the TGI in the test on HL-60(TB) leukemia, in the test on SN12C renal, in the test with DMS 273 small cell lung, with NCI-H23 lung and with OVCAR-5 ovarian was over 100 µM throughout.
Consider `COc1cc(C(=O)/C=C/c2c(-c3ccc(F)cc3)nc3sccn23)cc(OC)c1OC`, for which the GI50 with SF-539 CNS is 1.59 µM; in the test on HL-60(TB) leukemia it was 1.61 µM; in the test on SN12C renal it was 2 µM; in the test with PC-3 prostate, 3.57 µM; with MCF7 breast, 1.9 µM; in the test with MDA-MB-231 breast, 2.34 µM. In addition, the GI50 in the test with NCI-H23 lung is 2.43 µM; in the test with OVCAR-5 ovarian it was 1.85 µM. The TGI with SF-539 CNS is 3.62 µM; in the test with HL-60(TB) leukemia, 4.19 µM; in the test on SN12C renal it was 15.8 µM; in the test with PC-3 prostate it was over 46.2 µM; in the test on MCF7 breast it was 7.88 µM; with MDA-MB-231 breast it was over 29.8 µM. The results for the TGI with NCI-H23 lung and with OVCAR-5 ovarian were 10.6 µM and 4.79 µM, respectively.
With `CC(=O)OC1CCC2(C)C(CCC3C2CCC2(C)C(C4=CC(=O)OC4)CCC32)C1` (stereo unspecified), the GI50 with SF-539 CNS was 2.68 µM; with HL-60(TB) leukemia it was 7.9 µM; in the test with SN12C renal, 11.1 µM; with PC-3 prostate, 5.07 µM; with MCF7 breast, 9.07 µM; in the test on MDA-MB-231 breast it was 0.725 µM. Also, the GI50 in the test with NCI-H23 lung was 3.46 µM; in the test on OVCAR-5 ovarian it was 11.5 µM. Moreover, the TGI in the test with SF-539 CNS stood at 9.15 µM; in the test with HL-60(TB) leukemia, 30.7 µM; in the test on SN12C renal, 99.1 µM; with PC-3 prostate, 25.7 µM; with MCF7 breast it was 95.7 µM; with MDA-MB-231 breast, 2.81 µM. Further, the TGI in the test with NCI-H23 lung stood at 14.5 µM; in the test on OVCAR-5 ovarian, 55.8 µM.
On to `O=C1C[C@@H](c2ccccc2)NCCCCN(O)CCCN1`, for which the TGI with SF-539 CNS, in the test on HL-60(TB) leukemia, in the test on SN12C renal, with PC-3 prostate, in the test with MCF7 breast and with MDA-MB-231 breast was over 100 µM throughout. The concentration for total growth inhibition (TGI) in the test on NCI-H23 lung and in the test on OVCAR-5 ovarian was over 100 µM throughout.
